“Also recorded” adds a separate entry of the source.
Tests used:
[1] = Change in body weight of mice fed ordinary or high-fat diet with or without astaxanthin; type: in vivo, ICR mice; settings: 0.02% astaxanthin in ordinary or high-fat diet, weight measured once a week
Protocol: (§1) The test substance (astaxanthin) was added to an ordinary diet (“Labo MR Stock” manufactured by Nosan Corporation (Nishi-ku, Yokohama)) and a high-fat diet (“HFD-60” Oriental Yeast Co., Ltd. (Itabashi-ku, Tokyo)) so that the content thereof was 0.02%.
(§2) A commercially-available product “AstaReal Oil 50F” (manufactured by Fuji Chemical Industries Co., Ltd.) was used as astaxanthin.
(§3) Twenty 4-week-old ICR mice were respectively kept in different cages, and habituated for 1 week.
(§4) After completion of habituation, the weight of each mouse was measured, and the mice were divided into an ordinary diet group (group C), an ordinary diet+astaxanthin group (group CA), a high-fat diet group (group H), and a high-fat diet+astaxanthin group (group HA) (five mice per group).
The diet was fed to each group from Day 1, and the weight of each mouse was measured once a week.
The ordinary diet was fed once a week, and the high-fat diet was fed every other day (the high-fat diet was returned to room temperature on the day before the feeding).
The mean value of each group was analyzed by Tukey's multiple comparison test.

[2] = tested on: Lactobacillus group (lactic acid bacteria); experiment: Real-time PCR of fecal DNA, Lactobacillus group; type: in vivo, ICR mice
Protocol: (§5) A change in intestinal flora when a high-fat diet was fed to mice, and the effect of astaxanthin on intestinal flora were determined using a real-time PCR method.
as §1, §2, §3
(§6) After completion of habituation, the weight of each mouse was measured, and the mice were divided into an ordinary diet group (group C), an ordinary diet+astaxanthin group (group CA), a high-fat diet group (group H), and a high-fat diet+astaxanthin group (group HA) (five mice per group). […]
(§7) The DNA solution was 100-fold diluted (Lactobacillus, Streptococcus, Clostridium coccoides, and Clostridium leptum), and the final concentration was adjusted to […] (other targets). […] The primer sequence was analyzed using the method of Matsuki et al. or Endo et al. […]
(§8) Regarding a comparison as to the presence or absence of astaxanthin, the bacterial count change ratio was analyzed by Mann-Whitney's U test (one-sided test).

[3] = tested on: Streptococcus group (lactic acid bacteria); experiment: Real-time PCR of fecal DNA, Streptococcus group; type: in vivo, ICR mice
Protocol: as §5, §1, §2, §3, §6, §7, §8

[4] = tested on: Clostridium coccoides group; experiment: Real-time PCR of fecal DNA, Clostridium coccoides group; type: in vivo, ICR mice
Protocol: as §5, §1, §2, §3, §6, §7, §8

Clostridium leptum group = experiment: Real-time PCR of fecal DNA, Clostridium leptum group; type: in vivo, ICR mice; settings: group HA vs group H
Protocol: as §5, §1, §2, §3, §4
(§9) The feces of the mice were collected over 24 hours on the final day of habituation (Day 0). […]
as §7
(§10) The mean value of each group was analyzed by Tukey's multiple comparison test. […]

[5] = tested on: bacteria that belong to the genus Bacteroides; experiment: Real-time PCR of fecal DNA, genus Bacteroides; type: in vivo, ICR mice; settings: group HA (high-fat diet + astaxanthin), Day 14, FIG. 9
Protocol: as §5, §1, §2, §3, §4, §9, §7, §10

intestinal flora = experiment: Effect of astaxanthin on intestinal flora of mice fed a high-fat diet (overall); type: in vivo; settings: intake of astaxanthin, high-fat diet fed to a mouse
Protocol: A change in intestinal flora when a high-fat diet was fed to mice, and the effect of astaxanthin on intestinal flora were determined using a real-time PCR method. The test substance (astaxanthin) was added to an ordinary diet (“Labo MR Stock” manufactured by Nosan Corporation (Nishi-ku, Yokohama)) and a high-fat diet (“HFD-60” Oriental Yeast Co., Ltd. (Itabashi-ku, Tokyo)) so that the content thereof was 0.02%. A commercially-available product “[…] Oil […]” (manufactured by Fuji Chemical Industries Co., Ltd.) was used as astaxanthin. Twenty 4-week-old ICR mice were respectively kept in different cages, and habituated for 1 week. After completion of habituation, the weight of each mouse was measured, and the mice were divided into an ordinary diet group (group C), an ordinary diet+astaxanthin group (group CA), a high-fat diet group (group H), and a high-fat diet+astaxanthin group (group HA) (five mice per group). The DNA solution was 100-fold diluted (Lactobacillus, Streptococcus, Clostridium coccoides, and Clostridium leptum), and the final concentration was adjusted to […] (other targets). […] The primer sequence was analyzed using the method of Matsuki et al. or Endo et al. The real-time PCR assay was performed on Bacteroides, Bifidobacterium (bifidobacteria), Prevotella, Lactobacillus, Streptococcus, Clostridium coccoides, and Clostridium leptum.

[6] = taken orally; cited from earlier work
[7] = eight-week treatment; cited from earlier work

Structure (SMILES): CC1=C(/C=C/C(C)=C/C=C/C(C)=C/C=C/C=C(C)/C=C/C=C(C)/C=C/C2=C(C)C(=O)C(O)CC2(C)C)C(C)(C)CC(O)C1=O (stereo not drawn) [astaxanthin, 3,3′-dihydroxy-β,β-carotene-4,4′-dione]
- change in body weight, groups fed astaxanthin (CA, HA) vs groups not fed astaxanthin (C, H) [1]: No significant difference
- rate of increase in the bacterial count of the Lactobacillus group ([2]; addition of 0.02% astaxanthin to diet, p=0.031): increased
- bacterial count of the Lactobacillus group ([2]; group C vs CA and group H vs HA, FIG. 4): increased
- rate of increase in bacterial count of the Streptococcus group, between the high-fat diet groups ([3]; group H vs HA, p=0.044): significant difference
- bacterial count of the Streptococcus group ([3]; group HA (high-fat diet + astaxanthin), Day 28): comparable to those of the ordinary diet group; also recorded: increased
- growth of the Clostridium coccoides group ([4]; group H vs HA, Day 14 and Day 28, FIG. 7): suppressed the growth
- rate of increase in the bacterial count of the Clostridium coccoides group ([4]; high-fat diet, addition of astaxanthin, p=0.029): decreased
- bacterial count of the Clostridium leptum group (Clostridium leptum group; Day 14, p<0.001): temporary increase
- bacterial count of the Clostridium leptum group (Clostridium leptum group; Day 28): no significant difference
- bacterial count of bacteria that belong to the genus Bacteroides [5]: did not show such a temporary increase; also recorded: suppressed a temporary increase; also recorded: did not show a significant increase
- effect on intestinal flora (intestinal flora): improves intestinal flora; also recorded: controls the disorder of intestinal flora
- astaxanthin absorbed in the small intestine [6]: about 5%
- efficacy reported in Non-Patent Literature 1 [7]: enhances the antioxidant potential, decreases blood pressure, and improves constipation and a climacteric complaint
